{
  "source": "ChEMBL document CHEMBL5346960",
  "about": "“Quantitative Attribution of the Protective Effects of Aminosterols against Protein Aggregates to Their Chemical Structures and Ability to Modulate Biological Membranes” (2023)",
  "key": {"Lipid bilayer [1]": {"test_system": "Lipid bilayer", "test": "Binding affinity to large unilamellar vesicles liposome model assessed as increase in LUV size incubated for 15 mins by light scattering analysis", "conditions": "filed as modulator"}, "Lipid bilayer [2]": {"test_system": "Lipid bilayer", "test": "Binding affinity to large unilamellar vesicles liposome model assessed as saturation concentration by measuring increase in incorporated compound mass incubated for 15 mins by light scattering analysis", "conditions": "filed as modulator"}, "Lipid bilayer [3]": {"test_system": "Lipid bilayer", "test": "Binding affinity to large unilamellar vesicles liposome model assessed as saturation concentration by measuring increase in LUV mass incubated for 15 mins by light scattering analysis", "conditions": "filed as modulator"}, "Lipid bilayer [4]": {"test_system": "Lipid bilayer", "test": "Binding affinity to large unilamellar vesicles liposome model assessed as increase in transition temperature […] (reference value: 24.5 +/- 2 degreeC)", "conditions": "filed as modulator"}, "Lipid bilayer [5]": {"test_system": "Lipid bilayer", "test": "Induction of membrane redistribution in large unilamellar vesicles liposome model assessed as mean shortest distance between BODIPY-FL-SM and BODIPY-542/563 C11-CHOL at 5 uM by FRET assay (reference value: 69 +/- 1 Angstrom)", "conditions": "filed as modulator"}, "Lipid bilayer [6]": {"test_system": "Lipid bilayer", "test": "Induction of membrane redistribution in large unilamellar vesicles liposome model assessed as mean shortest distance between BODIPY-FL-CHOL and BODIPY-542/563 C11-CHOL at 5 uM by FRET assay (reference value: 72 +/- 1 Angstrom)", "conditions": "filed as modulator"}, "Lipid bilayer [7]": {"test_system": "Lipid bilayer", "test": "Induction of membrane redistribution in large unilamellar vesicles liposome model assessed as mean shortest distance between BODIPY-FL-CHOL and BODIPY-542/563 C11-CHOL at 5 uM by FRET assay relative to control", "conditions": "filed as modulator"}, "Lipid bilayer [8]": {"test_system": "Lipid bilayer", "test": "Displacement of alpha-synuclein from DMPS large unilamellar vesicles liposome model incubated for 15 mins by Far-UV CD spectroscopy", "conditions": "filed as modulator, dose <= 70.0 µM"}, "Lipid bilayer [9]": {"test_system": "Lipid bilayer", "test": "Induction of membrane redistribution in large unilamellar vesicles liposome model assessed as mean shortest distance between BODIPY-FL-DOPC and BODIPY-542/563 C11-CHOL at 5 uM by FRET assay (reference value: 70 +/- 2 Angstrom)", "conditions": "filed as modulator"}, "Lipid bilayer [10]": {"test_system": "Lipid bilayer", "test": "Induction of membrane redistribution in large unilamellar vesicles liposome model assessed as mean shortest distance between BODIPY-FL C5-GM1 and BODIPY-542/563 C11-CHOL at 5 uM by FRET assay relative to control", "conditions": "filed as modulator"}, "SH-SY5Y [11]": {"test_system": "SH-SY5Y", "test": "Protection against human SH-SY5Y cells assessed as decrease in ADDL-induced cytosolic calcium level incubated for 15 mins by Fluo-4 AM dye based scanning confocal microscopic analysis", "assay_type": "functional, cell-based", "conditions": "dose 0.05-5 µM"}, "Lipid bilayer [12]": {"test_system": "Lipid bilayer", "test": "Binding affinity to large unilamellar vesicles liposome model assessed as increase in LUV diameter incubated for 15 mins by light scattering analysis"}, "SH-SY5Y [13]": {"test_system": "SH-SY5Y", "test": "Protection against human SH-SY5Y cells assessed as decrease in ADDL-induced cytosolic calcium level at 5 uM incubated for 15 mins by Fluo-4 AM dye based scanning confocal microscopic analysis", "assay_type": "functional", "design": "scale not given: the % may be the effect or the level left", "conditions": "0.25 h"}, "Lipid bilayer [14]": {"test_system": "Lipid bilayer", "test": "Induction of membrane redistribution in large unilamellar vesicles liposome model assessed as mean shortest distance between BODIPY-FL C5-GM1 and BODIPY-542/563 C11-CHOL at 5 uM by FRET assay (reference value: 65 +/- 1 Angstrom)", "conditions": "filed as modulator"}, "Lipid bilayer [15]": {"test_system": "Lipid bilayer", "test": "Binding affinity to large unilamellar vesicles liposome model assessed as saturation concentration by microfluidic analysis", "conditions": "filed as modulator"}},
  "note": "Active and inactive are the calls of the source. The rule behind the calls is not given here.",
  "data": [
    {"smiles": "C[C@H](CCC[C@H](C)C(=O)O)[C@H]1CC[C@H]2[C@@H]3[C@H](O)C[C@H]4C[C@@H](NCCCNCCCCNCCCN)CC[C@]4(C)[C@H]3CC[C@]12C", "values": [
      {"measurement": "Activity", "setting": "Lipid bilayer [1]", "value": "Active"},
      {"measurement": "Activity", "setting": "Lipid bilayer [2]", "value": 43, "unit": "µM"},
      {"measurement": "Activity", "setting": "Lipid bilayer [3]", "value": 43, "unit": "µM"},
      {"measurement": "T", "setting": "Lipid bilayer [4]", "value": 46, "unit": "°C"},
      {"measurement": "Activity", "setting": "Lipid bilayer [5]", "value": 69, "unit": "Angstrom"},
      {"measurement": "Activity", "setting": "Lipid bilayer [6]", "value": 63, "unit": "Angstrom"},
      {"measurement": "Activity", "setting": "Lipid bilayer [7]", "value": 64, "unit": "%"},
      {"measurement": "Activity", "setting": "Lipid bilayer [8]", "value": "Dose-Dependent Effect"},
      {"measurement": "Activity", "setting": "Lipid bilayer [9]", "value": 67, "unit": "Angstrom"},
      {"measurement": "Activity", "setting": "Lipid bilayer [10]", "value": 57, "unit": "%"},
      {"measurement": "Activity", "setting": "SH-SY5Y [11]", "value": "Dose-Dependent Effect"},
      {"measurement": "Activity", "setting": "Lipid bilayer [12]", "value": "inactive"},
      {"measurement": "Activity", "setting": "SH-SY5Y [13]", "value": 100, "unit": "%"},
      {"measurement": "Activity", "setting": "Lipid bilayer [14]", "value": 73, "unit": "Angstrom"}
    ]},
    {"smiles": "CC(C)[C@@H](CC[C@@H](C)[C@H]1CC[C@H]2[C@@H]3[C@H](O)C[C@H]4C[C@@H](NCCCNCCCCN)CC[C@]4(C)[C@H]3CC[C@]12C)OS(=O)(=O)O", "note": "[SQUALAMINE]", "values": [
      {"measurement": "Activity", "setting": "Lipid bilayer [1]", "value": "Active"},
      {"measurement": "Activity", "setting": "Lipid bilayer [2]", "value": 15, "unit": "µM"},
      {"measurement": "Activity", "setting": "Lipid bilayer [3]", "value": 12, "unit": "µM"},
      {"measurement": "T", "setting": "Lipid bilayer [4]", "value": 35, "unit": "°C"},
      {"measurement": "Activity", "setting": "Lipid bilayer [5]", "value": 72, "unit": "Angstrom"},
      {"measurement": "Activity", "setting": "Lipid bilayer [6]", "value": 64, "unit": "Angstrom"},
      {"measurement": "Activity", "setting": "Lipid bilayer [7]", "value": 57, "unit": "%"},
      {"measurement": "Activity", "setting": "Lipid bilayer [8]", "value": "Dose-Dependent Effect"},
      {"measurement": "Activity", "setting": "Lipid bilayer [9]", "value": 68, "unit": "Angstrom"},
      {"measurement": "Activity", "setting": "Lipid bilayer [10]", "value": 50, "unit": "%"},
      {"measurement": "Activity", "setting": "SH-SY5Y [11]", "value": "Dose-Dependent Effect"},
      {"measurement": "Activity", "setting": "Lipid bilayer [12]", "value": "inactive"},
      {"measurement": "Activity", "setting": "SH-SY5Y [13]", "value": 100, "unit": "%"},
      {"measurement": "Activity", "setting": "Lipid bilayer [14]", "value": 72, "unit": "Angstrom"}
    ]},
    {"smiles": "CC(C)[C@@H](CC[C@@H](C)[C@H]1CC[C@H]2[C@@H]3[C@H](O)C[C@H]4C[C@@H](NCCCNCCCCNCCCN)CC[C@]4(C)[C@H]3CC[C@]12C)OS(=O)(=O)O", "note": "[TRODUSQUEMINE]", "values": [
      {"measurement": "Activity", "setting": "Lipid bilayer [1]", "value": "Active"},
      {"measurement": "Activity", "setting": "Lipid bilayer [2]", "value": 35, "unit": "µM"},
      {"measurement": "Activity", "setting": "Lipid bilayer [3]", "value": 35, "unit": "µM"},
      {"measurement": "T", "setting": "Lipid bilayer [4]", "value": 46, "unit": "°C"},
      {"measurement": "Activity", "setting": "Lipid bilayer [5]", "value": 67, "unit": "Angstrom"},
      {"measurement": "Activity", "setting": "Lipid bilayer [6]", "value": 58, "unit": "Angstrom"},
      {"measurement": "Activity", "setting": "Lipid bilayer [7]", "value": 100, "unit": "%"},
      {"measurement": "Activity", "setting": "Lipid bilayer [8]", "value": "Dose-Dependent Effect"},
      {"measurement": "Activity", "setting": "Lipid bilayer [9]", "value": 68, "unit": "Angstrom"},
      {"measurement": "Activity", "setting": "Lipid bilayer [10]", "value": 100, "unit": "%"},
      {"measurement": "Activity", "setting": "SH-SY5Y [11]", "value": "Dose-Dependent Effect"},
      {"measurement": "Activity", "setting": "Lipid bilayer [15]", "value": 28, "unit": "µM"},
      {"measurement": "Activity", "setting": "Lipid bilayer [12]", "value": "inactive"},
      {"measurement": "Activity", "setting": "SH-SY5Y [13]", "value": 100, "unit": "%"},
      {"measurement": "Activity", "setting": "Lipid bilayer [14]", "value": 79, "unit": "Angstrom"}
    ]}
  ]
}
